# No end group written: not given here.
# Legend:
# [1] = test system: influenza A virus strains H3N2 (X31), H7N1, H1N1, H5N1, H3N2 (Victoria), H3N2 (NY); assay type: binding
# A/Aichi/2/68 H3N2 (X31) = assay type: binding, influenza A virus
# A/NewYork/55/2004 H3N2 = assay type: binding, influenza A virus
# A/California/7/2009 H1N1 = assay type: binding, influenza A virus
# [2] = test system: X31 virus (A/Aichi/2/68 H3N2); test: Inhibition of influenza A virus binding to fetuin (SPR)
# A/Panama/2007/1999 H3N2 = assay type: cell-based, influenza A virus; settings: read-out: Mean Ki(HAI)
# influenza A virus = assay type: cell-based
# A/Aichi/2/68 H3N2 [3] = assay type: cell-based, influenza A virus
# A/Aichi/2/68 H3N2 [4] = test: Viral fusion with human erythrocyte ghosts (R18 dequenching); assay type: cell-based, influenza A virus; settings: concentration-dependent, maximum; pH 5; FIG. 7
# A/Aichi/2/68 H3N2 [5] = test: Infectivity inhibition assay (MTS, MDCK II cells); assay type: cell-based, influenza A virus; settings: MOI 0.05, 24 h, concentration dependent, maximum, FIG. 8
# [6] = test system: A/Mute swan/Germany/R901/06 H7N1
# A/Aichi/2/68 H3N2 [7] = test system: A/Aichi/2/68 H3N2
# [8] = test system: A/Mute swan/Germany/R901/06 K3141 H7N1
substance,measurement,setting,value
SEQ ID NO:33 (FYGYDVAF; Synthetically produced peptide),"relative binding preference for virus strains, in descending order",[1],"H7N1 over H3N2 (X31), H3N2 (NY) and H5N1"
KKKKFYGYDVFF-NH2 [SEQ ID NO:28],factor of increased binding signal in comparison to SEQ ID NO:1,A/Aichi/2/68 H3N2 (X31),2
same,factor of enhanced binding capability in comparison to SEQ ID NO:1,A/NewYork/55/2004 H3N2,4
same,binding preference among the three tested strains,A/California/7/2009 H1N1,shifts the binding preference strongly to H1N1/2009
same,factor of enhanced binding capability in comparison to SEQ ID NO:1,A/California/7/2009 H1N1,24
same,IC50,"[2]; A/Aichi/2/68 H3N2 (X31), SPR, read-out: Inhibition of binding to fetuin (IC50, RB)",20 µM
same,"fold lower IC50,RB in comparison to reference peptide SEQ ID NO:1",[2]; X31,about 4.5 fold
same,Ki,A/Panama/2007/1999 H3N2,0.1 µM
same,"fold lower Ki(HAI) than the conventional peptides (SEQ ID NO:100, 101, 102)",influenza A virus,"up to 1,600 fold"
same,inhibition of viral attachment to single red blood cells,A/Aichi/2/68 H3N2 [3],up to 50%
same,inhibition of fusion efficiency with erythrocyte ghosts,A/Aichi/2/68 H3N2 [4],up to 40%
same,protection from infection / reduction of infectivity,A/Aichi/2/68 H3N2 [5],up to 55%
same,IC50,[6],30 µM
same,IC50,A/Aichi/2/68 H3N2 [7]; A/Aichi/2/68,18 µM
same,Ki,A/Aichi/2/68 H3N2 [7]; read-out: Mean Ki(HAI),31.9 µM
same,IC50,[8],23 µM
same,Ki,[8]; read-out: Mean Ki(HAI),36.5 µM
SEQ ID NO:23 (FYYYDVFY; Synthetically produced peptide),binding preference among the three tested strains,A/California/7/2009 H1N1,shifts the binding preference strongly to H1N1/2009
SEQ ID NO:29 (FYYYDVFF; Synthetically produced peptide),binding preference among the three tested strains,A/California/7/2009 H1N1,shifts the binding preference strongly to H1N1/2009
SEQ ID NO:76 (FYDYDRFY; Synthetically produced peptide),virus binding (SPR),A/Aichi/2/68 H3N2 (X31),does not bind
same,virus binding (SPR),A/NewYork/55/2004 H3N2,specifically binds
same,virus binding (SPR),A/California/7/2009 H1N1,does not bind
SEQ ID NO:97 (FYGYDVKF; Synthetically produced peptide),"relative binding preference for virus strains, in descending order",[1],"H5N1 over H7N1, H3N2 (X31) and H3N2 (NY)"
SEQ ID NO:34 (FLGYDVFF; Synthetically produced peptide),"relative binding preference for virus strains, in descending order",[1],"H3N2 (NY) over H5N1, H3N2 (X31) and H7N1"
